# Data published in patent publication US20200360391A1, “Medicinal Composition for Treating Intractable Heart Disease” (Osaka University, priority 2016, published 2020).
# Like-named read-outs stand apart in the source and are kept apart here.
# Assays:
# [1] = system: spontaneous dilated cardiomyopathy (J2N-k) hamster model; test: Spontaneous dilated cardiomyopathy (J2N-k) hamster model, 8-week administration from 20 weeks of age (Tests 1-3): echocardiography, body weight; details: for Minimal effective dose (screening 2): mg/kg twice per day, oral preparation
# Protocol: The doses of pharmaceutical products were determined based on the no-observed-adverse-effect levels in a long-term toxicity study using rats. δ-Glycan-deficient spontaneous dilated cardiomyopathy (J2N-k) male hamsters (Japan SLC, Inc.) were delivered at 18 weeks of age. After a 2-week quarantine/acclimation, echocardiography was performed.
# Each of the pharmaceutical products (A to K and O) was individually administered twice daily (at an interval of 8 hours or more) by oral gavage, and echocardiography was performed after 4 and 8 weeks (before dissection). Differences from the value before the start of administration (at the time of grouping) (amount of change: Δ) in each group were examined, and the cardiac function (EF value, FS %, etc.) was compared with that in the vehicle group (Group 1). Moreover, the heart was removed […] after the start of administration, and electron microscopy and RNA protein measurement were performed. Specimens for immunopathology were also collected and evaluated.
# Each pharmaceutical product was individually suspended in 0.5% CMC-Na (sodium carboxymethylcellulose; Wako Pure Chemical Industries, Ltd.) before use, and administered. […] To Group 1 (control), 0.5% CNC-Na (vehicle) was administered.
# Each pharmaceutical product was individually suspended in 0.5% CMC-Na (sodium carboxymethylcellulose; Wako Pure Chemical Industries, Ltd.) before use, and administered. Test substance G was suspended in distilled water before use, and administered.
# Reason the doses were set (assuming that the adult body weight was 60 kg, the same amounts as the maximum clinical doses were set) • 1) The clinical dose of C (ozagrel; OZ) was 200 mg twice per day. The dose was thus set to 3.3 mg/kg twice per day. • 2) The clinical dose of D (cilostazol; CS) was 100 mg twice per day. The dose was thus set to 1.7 mg/kg twice per day. • 3) The clinical dose of E (pirfenidone; PF) was 600 mg three times per day, i.e., 1800 mg/day in total. The dose was thus set to 15 mg/kg twice per day. • 4) The clinical dose of G (nintedanib sulfonate; OB) was 150 mg twice per day. The dose was thus set to 2.5 mg/kg twice per day. • 5) The clinical dose of P (carvedilol; CV) was 10 mg twice per day. The dose was thus set to 0.17 mg/kg twice per day. • 6) Preparation 2 (PLGA⋅MS preparation of camostat; B⋅MS): the clinical dose of active substance camostat was 200 mg three times per day, i.e., 600 mg/day in total; thus, intermittent subcutaneous administration at a daily dose of 10 mg/kg once every 4 weeks, twice in total was set. The dose was 1/28 of the total oral dose amount.
# The dose volume in oral administration was 5 mL/kg (the amount of liquid to be administered to each animal was calculated based on the most recent body weight), and administered by oral gavage using a polypropylene disposable syringe and a rat stomach tube.
# The administration period of each pharmaceutical product was 8 weeks.
# [2] = system: spontaneous dilated cardiomyopathy J2N-k baby hamsters; test: J2N-k baby hamsters (Test 4): administration alone or in combination, echocardiography, body weight; type: in vivo, hamster; details: for % FS / EF (%) / value of change in E.F. compared with E.F. at 0 W / value of change in F.S. compared with F.S. at 0 W: Test 4, dose O 0.17, C 3.3, E 15, orally twice daily, mean ± S.D.
# Protocol: δ-Glycan-deficient spontaneous dilated cardiomyopathy (J2N-k) male hamsters (Japan SLC, Inc.) were delivered at 4 weeks of age. After a 1-week quarantine/acclimation, echocardiography was performed. The hamsters were grouped by stratified random assignment based on the EF values and the body weights so that each administration group was equalized.
# Each test substance was individually administered twice daily (at an interval of 8 hours or more) by oral gavage, and echocardiography was performed 4 and 8 weeks after the start of administration (before dissection). Differences from the value before the start of administration (at the time of grouping) (amount of change: A) in each group were examined, and the cardiac function (EF value, FS %, etc.) was compared with that in the vehicle group (Group 1).
# The doses were set according to the dose-setting basis in Test 3, and similarly orally administered twice daily. Effects of administration of combinations of two or three of carvedilol, which is a β-blocker widely used clinically, and ozagrel and/or pirfenidone were examined.
# rats [3] = details: cited from earlier work; for No-observed-adverse-effect level: rats; for Dose at which toxic findings were observed: duration per compound
# [4] = system: BLM-induced mouse pulmonary fibrosis model; details: cited from earlier work
# [5] = cited from earlier work
# rats [6] = test: Repeated oral administration toxicity study in rats (dose-setting basis); details: mg/kg twice per day, oral preparation
# Excerpt: The dose-setting basis for the doses of the test substances used in pharmacological tests is as described below.
# [7] = system: rat coronary artery complete ischemia model; test: Model of ischemia (MI) by rat coronary artery complete ligation (Tests 1 and 2): echocardiography, body weight; details: for value of change in E.F. compared with E.F. on Day 1 / value of change in F.S. compared with F.S. on Day 1: B-MS 100, C-MS 50, F-MS 30 mg/kg s.c. single injection
# [8] = Test 1, p.o. b.i.d., NOAEL-based dose
# [9] = MI Test 1, NOAEL doses, 7 Day, mean ± S.D.
# [10] = MI Test 1, NOAEL doses, 14 Day, mean ± S.D.
# [11] = MI Test 1, NOAEL doses, 29 Day, mean ± S.D.
# [12] = Test 2, p.o. b.i.d., NOAEL-based dose
# [13] = MI Test 2, 14 Day, B 150, G 5, I 30, C 10 mg/kg p.o. b.i.d., mean ± S.D.
# [14] = MI Test 2, 29 Day, B 150, G 5, I 30, C 10 mg/kg p.o. b.i.d., mean ± S.D.
structure (smiles),measurement,setting,value
"Cc1ccc(=O)n(-c2ccccc2)c1 [Compound E, Pirfenidone]",Body weight 0 W,"[1]; Test 1, at grouping",116.1 g
same,LVIDd 4 W,"[1]; Test 1, p.o. b.i.d.",6.9 mm
same,LVIDd 8 W,"[1]; Test 1, p.o. b.i.d.",7.3 mm
same,LVIDs 4 W,"[1]; Test 1, p.o. b.i.d.",5.7 mm
same,LVIDs 8 W,"[1]; Test 1, p.o. b.i.d.",6.1 mm
same,Body weight 1 W,[1]; [8],116.3 g
same,Body weight 2 W,[1]; [8],118.3 g
same,Body weight 3 W,[1]; [8],119.5 g
same,Body weight 4 W,[1]; [8],121.4 g
same,LVIDs 8 W,"[1]; Test 1, p.o. b.i.d., listed as pirfenidone",significantly lower
same,"Cardiac function (EF, FS %) actual measured value and/or amount of change compared with control, 8 W value","[1]; Test 3, clinical dose",significant cardiac function improvement effect
same,"Cardiac function (EF, FS %) actual measured value or change rate compared with control, 4 W value","[1]; Test 3, clinical dose",significant cardiac function improvement effect
same,Cardiac function improvement effect,"[1]; Test 3, clinical dose, summary",cardiac function improvement effect was observed
same,Minimal effective dose (screening 2),[1],15 mg/kg
same,Body weight 0 W,"[2]; Test 4, at grouping",71.7 g
same,% FS,[2]; 0 W (start of administration),39.0 ± 3.0%
same,EF (%),[2]; 0 W (start of administration),77.1 ± 3.4%
same,% FS,[2]; 4 W,34.1 ± 1.9%
same,EF (%),[2]; 4 W,71.3 ± 2.4%
same,value of change in E.F. compared with E.F. at 0 W,[2]; 4 W,<−5.8 ± 1.9> %
same,value of change in F.S. compared with F.S. at 0 W,[2]; 4 W,<−4.8 ± 1.7> %
same,% FS,[2]; 8 W,29.7 ± 1.8%
same,EF (%),[2]; 8 W,65.2 ± 2.6%
same,value of change in E.F. compared with E.F. at 0 W,[2]; 8 W,<−11.9 ± 2.8> %
same,value of change in F.S. compared with F.S. at 0 W,[2]; 8 W,<−9.2 ± 2.4> %
same,No-observed-adverse-effect level,rats [3]; 1 month,100 mg/kg
same,Dose at which toxic findings were observed,rats [3]; repeated oral administration in rats,≥ 100 mg/kg
same,Minimal effective dose for antifibrosis,[4]; BLM-induced mouse pulmonary fibrosis model,30 mg/kg/day
same,Abdominal / stomach / gastric discomfort cases,"[5]; human, in vivo",14.0%
same,Abnormal fluctuation in laboratory test values,"[5]; human, in vivo",45.3%
same,Anorexia cases,"[5]; human, in vivo",23.0%
same,Light-hypersensitivity cases,"[5]; human, in vivo",51.7%
same,Nausea cases (cilostazol: nausea/vomiting),"[5]; human, in vivo",12.1%
same,γ-GTP elevation cases,"[5]; human, in vivo",20.0%
same,Cases with side effects (including laboratory test value abnormality),[5]; share of cases evaluated for safety,87.9%
same,Maximum no-observed-adverse-effect level (screening 1),rats [6],50 mg/kg
same,Action on left ventricular systolic function,"[7]; MI Test 1, 28-day repeated oral administration b.i.d., NOAEL-based doses",suppression action on the deterioration of left ventricular systolic function
same,Body weight,"[7]; MI Test 1, NOAEL doses, 1 Day (grouping), mean ± S.D.",232.0 ± 3.9 g
same,% FS: value of change compared with the value on Day 1,[7]; [9],0%
same,Body weight,[7]; [9],236.7 ± 5.3 g
same,EF: value of change compared with the value on Day 1,[7]; [9],-1%
same,% FS: value of change compared with the value on Day 1,[7]; [10],-2%
same,Body weight,[7]; [10],257.7 ± 10.1 g
same,EF: value of change compared with the value on Day 1,[7]; [10],-4%
same,Body weight,"[7]; MI Test 1, NOAEL doses, 21 Day, mean ± S.D.",272.4 ± 10.5 g
same,% FS: value of change compared with the value on Day 1,[7]; [11],-4%
same,Body weight,[7]; [11],287.5 ± 16.2 g
same,EF: value of change compared with the value on Day 1,[7]; [11],-8%
"COC(=O)c1ccc2c(c1)NC(=O)/C2=C(\Nc1ccc(N(C)C(=O)CN2CCN(C)CC2)cc1)c1ccccc1 [Compound G, Nintedanib ethanesulfonate]",Body weight 0 W,"[1]; Test 2, at grouping",121.6 g
same,LVIDd 4 W,"[1]; Test 2, p.o. b.i.d.",6.9 mm
same,LVIDd 8 W,"[1]; Test 2, p.o. b.i.d.",7.2 mm
same,LVIDs 4 W,"[1]; Test 2, p.o. b.i.d.",5.7 ± mm
same,LVIDs 8 W,"[1]; Test 2, p.o. b.i.d.",6.1 ± mm
same,% FS 4 W,[1]; [12],significantly higher
same,% FS value of change at 4 W compared with 0 W,[1]; [12],significantly higher
same,Body weight 1 W,[1]; [12],121.3 g
same,Body weight 2 W,[1]; [12],122.0 g
same,Body weight 3 W,[1]; [12],123.8 g
same,Body weight 4 W,[1]; [12],126.1 g
same,Body weight 5 W,[1]; [12],127.1 g
same,Body weight 7 W,[1]; [12],129.2 g
same,Body weight 8 W,[1]; [12],128.9 g
same,EF 4 W,[1]; [12],significantly higher
same,LVIDs 8 W,"[1]; Test 2, p.o. b.i.d., listed as nintedanib",significantly lower
same,"Cardiac function (EF, FS %) actual measured value and/or amount of change compared with control, 8 W value","[1]; Test 3, clinical dose",significant cardiac function improvement effect
same,Minimal effective dose (screening 2),[1],2.5 mg/kg
same,No-observed-adverse-effect level,rats [3]; 6 months,5 mg/kg
same,Dose at which toxic findings were observed,rats [3]; repeated administration in rats,20 mg/kg/day
same,"Inhibitory effect on pulmonary fibrosis, 60 mg/kg versus 30 mg/kg","[4]; prophylactic administration Day 0 to Day 14, once daily oral gavage",slightly higher inhibitory effect on pulmonary fibrosis
same,Dose with apparent effect on both inflammation and fibrosis,"[4]; therapeutic administration Day 7 to Day 21, once daily oral gavage",60 mg/kg
same,Abdominal pain cases,"[5]; human, in vivo",10.2%
same,Diarrhea cases,"[5]; human, in vivo",53.6%
same,Elevated AST (GOT) and/or ALT (GPT) / liver enzyme cases,"[5]; human, in vivo",10.5%
same,Nausea cases (cilostazol: nausea/vomiting),"[5]; human, in vivo",19.1%
same,Maximum no-observed-adverse-effect level (screening 1),rats [6],5 mg/kg
same,EF actual measured value and/or amount of change compared with control,"[7]; MI Test 2, Day 14 and Day 29",significantly higher
same,"Values of cardiac function (EF, FS %) compared with control","[7]; MI Test 2, oral b.i.d. 4 weeks or single subcutaneous administration",significantly higher
same,Body weight,"[7]; MI Test 2, 1 Day, B 150, G 5, I 30, C 10 mg/kg p.o. b.i.d., B MS 100, C MS 50, I MS 30 mg/kg s.c. single injection, mean",240.9 g
same,Body weight,"[7]; MI Test 2, 7 Day, B 150, G 5, I 30, C 10 mg/kg p.o. b.i.d., B MS 100, C MS 50, I MS 30 mg/kg s.c. single injection, mean",248.1 g
same,Body weight,"[7]; MI Test 2, 14 Day, B 150, G 5, I 30, C 10 mg/kg p.o. b.i.d., B MS 100, C MS 50, I MS 30 mg/kg s.c. single injection, mean",273.9 g
same,value of change in E.F. compared with E.F. on Day 1,[7]; [13],<−6.2 ± 1.8> %
same,value of change in F.S. compared with F.S. on Day 1,[7]; [13],<−3.4 ± 1.1> %
same,Body weight,"[7]; MI Test 2, 21 Day, B 150, G 5, I 30, C 10 mg/kg p.o. b.i.d., B MS 100, C MS 50, I MS 30 mg/kg s.c. single injection, mean",290.5 g
same,Body weight,"[7]; MI Test 2, 29 Day, B 150, G 5, I 30, C 10 mg/kg p.o. b.i.d., B MS 100, C MS 50, I MS 30 mg/kg s.c. single injection, mean",311.0 g
same,value of change in E.F. compared with E.F. on Day 1,[7]; [14],<−11.0 ± 2.7> %
same,value of change in F.S. compared with F.S. on Day 1,[7]; [14],<−5.8 ± 3.6> %
